# What was measured:
# [1] = test system: oral mucosa epithelial cells (OMECS); assay: Toxicity of low-dose PS-341 in oral mucosa epithelial cells; format: cell-based, rabbit; settings: 2.5 nM PS-341 (very low dose), 72 h
# Procedure: (§1) After two weeks of cell culture and when the cells grew to form a multilayered tissue like, proteasome inhibitor (PS-341, (Bortezomib/Velcade®, Millennium Pharmaceutical, a highly specific proteasome inhibitor) was added in cell culture media for 24 h and for 72 h at 2.5, 5, 10, 20, and 50 nM, to, respectively achieve proteasome inhibition or proteasome activation.
# Keratin 13 (K13) = assay: Western blot of K13 in PS-341-treated oral mucosa epithelial cells; format: cell-based, rabbit; settings: OMECS
# Procedure: as §1
# [2] = test system: 26S constitutive proteasome (CPR); assay: Proteasome chymotrypsin-like activity in cultured oral mucosa epithelial cells treated with PS-341; format: cell-based, rabbit
# Procedure: as §1
# One μg of total protein from sample homogenates was used. The reaction mixture contained 50 mM Tris-HCl pH=8, 1 mM DTT, and 40 μM Suc-Leu-Leu-Val-Tyr-AMC (Sigma Aldrich) substrate for chymotrypsin-like activity or 40 μM of Boc-Leu-Ser-Thr-Arg-AMC for trypsin-like activity or 100 uM of Ac-Gly-Pro-Leu-Asp-AMC (Sigma Aldrich) for Caspase-like activity. 5 mM ATP was added to the reaction mixture to distinguish 26S proteasome activity from 20S proteasome activity. The mixture was then incubated for 30 min at 37° C., and then stopped by adding […] monochloroacetate and 30 mM sodium acetate pH=4.3. Fluorescence was determined by measuring the release of AMC (λ, excitation: 370 nm, λ, emission: 410 nm), using a Perkin Elmer LS 30 spectrofluorometer.
# Keratin 4 (K4) = assay: Western blot of K4 in PS-341-treated oral mucosa epithelial cells; format: cell-based, rabbit; settings: OMECS
# Procedure: as §1
# [3] = test system: poly-ubiquitinated proteins; assay: Western blot of poly-ubiquitinated proteins in PS-341-treated oral mucosa epithelial cells; format: cell-based, rabbit; settings: 2.5 nM PS-341, 72 h
# Procedure: as §1
# IκB / NFκB = IκB / NFκB activation in PS-341-treated oral mucosa epithelial cells
# [4] = high doses 10 and 50 nM, 24 hours
structure (smiles),measurement,setting,value
"CC(C)C[C@H](NC(=O)[C@H](Cc1ccccc1)NC(=O)c1cnccn1)B(O)O [PS-341, Bortezomib]",toxic effects,[1],does not produce toxic effects
same,K13 levels,"Keratin 13 (K13); 2.5 nM PS-341, 72 hours",decreased
same,K13 level,Keratin 13 (K13); [4],modified and significantly accumulated
same,CPR chymotrypsin-like activity decrease,"[2]; 2.5 nM PS-341, 24 h, oral mucosa epithelial cells",9%
same,increase in proteasome chymotrypsin-like activity versus untreated cells,"[2]; 2.5 nM PS-341, 72 hours, oral mucosa epithelial cells",61%
same,CPR chymotrypsin-like activity decrease,"[2]; 5 nM PS-341, 24 h, oral mucosa epithelial cells",−41%
same,proteasome activities at 72 hours,"[2]; 5 nM PS-341, 72 hours, oral mucosa epithelial cells",increased proteasome activities
same,CPR chymotrypsin-like activity decrease,"[2]; 10 nM PS-341, 24 h, oral mucosa epithelial cells",−59%
same,proteasome activities at 72 hours,"[2]; 10 nM PS-341, 72 hours, oral mucosa epithelial cells",increased proteasome activities
same,CPR chymotrypsin-like activity decrease,"[2]; 20 nM PS-341, 24 h, oral mucosa epithelial cells",−84%
same,CPR chymotrypsin-like activity decrease,"[2]; 50 nM PS-341, 24 h, oral mucosa epithelial cells",−86%
same,Chymotrypsine-like proteasome activity,"[2]; high doses 10 and 50 nM, 24 hours, OMECS",decreased
same,K4 levels,"Keratin 4 (K4); 2.5 nM PS-341, 72 hours",decreased
same,K4 level,Keratin 4 (K4); [4],modified and significantly accumulated
same,poly-ubiquitinated protein accumulation,[3],no significant poly-ubiquitinated protein accumulation
same,levels of expression of Inhibitor Kappa B,"IκB / NFκB; 2.5 nM PS-341, 72 hours after treatment, OMECS",decreased
same,NFκB activation,"IκB / NFκB; 2.5 nM PS-341, OMECS",blocked NFκB activation
same,IκB,"IκB / NFκB; 2.5 nM PS-341, first 24 hours, OMECS",stabilizing IκB
